This is an account of results in patent publication EP4667483A1, “HUMAN TRANSFERRIN RECEPTOR-BINDING PEPTIDE” (JCR Pharmaceuticals Co., Ltd., priority 2023, dated 2024).

Molecules are shown by their SMILES. Bridge positions count the residues as written; N and C are the ends. Square brackets hold non-standard residues; d marks the D form. Peptide text beside a SMILES is read from it. * marks the point of attachment. Trp(1-CH2COOH) = N[C@@H](Cc1cn(CC(=O)O)c2ccccc12)C(=O)O; Phe(3-COOH) = N[C@@H](Cc1cccc(C(=O)O)c1)C(=O)O; NMePhe(3-Cl) = CN[C@@H](Cc1cccc(Cl)c1)C(=O)O; NMePhe(4-Cl) = CN[C@@H](Cc1ccc(Cl)cc1)C(=O)O; NMeY = CN[C@@H](Cc1ccc(O)cc1)C(=O)O; Nva(3-Et) = CCC(CC)[C@H](N)C(=O)O; PEG4 = NCCOCCOCCOCCOCCC(=O)O; Carboxymethyl = O=C(O)C*

Assay type in all cases: binding
In test [1] the target is T1, human transferrin receptor (hTfR) (Homo sapiens, UniProt P02786). Kind of test: SPR measurement under pH 6.0 conditions (Biacore T200, NTA chip, immobilized hTfR). To be noted: SPR, pH 6.0; read-out: hTfR SPR pH6.0 KD.
For test [2], the target named is T1, human transferrin receptor (hTfR). Put plainly: Evaluation of pH dependence (ratio of SPR koff or KD at pH 6.0 to pH 7.4). To be noted: ratio of koff at pH 6.0 to pH 7.4. On the procedure: The ratio of the calculated koff or KD values under pH 6.0 conditions to those under pH 7.4 conditions was calculated to check pH dependency.
Test [3] shares this target. Kind of test: SPR measurement under pH 7.4 conditions (Biacore T200, CM3 chip, hTfR captured by His Tag antibody). To be noted: SPR, pH 7.4; read-out: hTfR SPR pH7.4 KD.

T1 sequence (P02786 whole entry): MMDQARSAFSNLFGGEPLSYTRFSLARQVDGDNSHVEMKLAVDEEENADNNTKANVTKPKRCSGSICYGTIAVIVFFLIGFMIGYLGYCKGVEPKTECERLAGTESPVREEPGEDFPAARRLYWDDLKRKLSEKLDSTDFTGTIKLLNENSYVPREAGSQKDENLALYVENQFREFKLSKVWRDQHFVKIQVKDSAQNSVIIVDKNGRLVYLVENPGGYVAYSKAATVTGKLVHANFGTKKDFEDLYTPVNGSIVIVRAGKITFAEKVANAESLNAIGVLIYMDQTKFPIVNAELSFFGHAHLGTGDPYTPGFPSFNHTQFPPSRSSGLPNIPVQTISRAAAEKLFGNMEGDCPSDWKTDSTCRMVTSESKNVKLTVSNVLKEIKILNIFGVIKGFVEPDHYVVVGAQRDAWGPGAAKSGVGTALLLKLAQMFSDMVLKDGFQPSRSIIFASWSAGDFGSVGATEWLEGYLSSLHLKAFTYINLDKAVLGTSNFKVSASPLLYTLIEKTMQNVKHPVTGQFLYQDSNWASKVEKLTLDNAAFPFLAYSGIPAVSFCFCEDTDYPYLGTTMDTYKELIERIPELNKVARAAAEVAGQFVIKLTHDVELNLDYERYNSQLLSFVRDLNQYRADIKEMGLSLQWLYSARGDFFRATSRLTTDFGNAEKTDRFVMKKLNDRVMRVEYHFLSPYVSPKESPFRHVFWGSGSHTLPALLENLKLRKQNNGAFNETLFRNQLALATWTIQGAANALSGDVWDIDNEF

As to `CCC(CC)[C@@H]1NC(=O)[C@H](Cc2ccc(OCC(=O)O)cc2)NC(=O)[C@H](Cc2ccc(O)cc2)NC(=O)[C@H](CC(N)=O)NC(=O)[C@H](Cc2cn(CC(=O)O)c3ccccc23)NC(=O)[C@H](C(C)C)NC(=O)[C@H](Cc2cccc(Cl)c2)N(C)C(=O)[C@H](C(C)C)NC(=O)[C@H](C)NC(=O)CSC[C@@H](C(=O)NCCOCCOCCOCCOCCC(N)=O)NC(=O)[C@H](Cc2ccc(O)cc2)N(C)C(=O)[C@H](Cc2cccc(C(=O)O)c2)NC(=O)[C@H](CCCNC(=N)N)NC(=O)[C@H](CCC(N)=O)NC(=O)[C@H]([C@@H](C)CC)NC1=O` [compound 88] ({CH2CO}-AV[NMePhe(3-Cl)]V[Trp(1-CH2COOH)]NYY(Carboxymethyl)[Nva(3-Et)]IQR[Phe(3-COOH)][NMeY]C[PEG4]-NH2; thioether N-15), the values for the Kd in test [1] and in test [3] were 51.1 nM and 6.96 nM, respectively. Moreover, in test [2], the “dependency koff pH6.0/7.4” value is 8.60.
As to `CCC(CC)[C@@H]1NC(=O)[C@H](Cc2ccc(OCC(=O)O)cc2)NC(=O)[C@H](Cc2ccc(O)cc2)NC(=O)[C@H](CC(N)=O)NC(=O)[C@H](Cc2cn(CC(=O)O)c3ccccc23)NC(=O)[C@H](C(C)C)NC(=O)[C@H](Cc2cccc(Cl)c2)N(C)C(=O)[C@H](C(C)C)NC(=O)[C@H](C)NC(=O)CSC[C@@H](C(=O)NCCOCCOCCOCCOCCC(N)=O)NC(=O)[C@H](Cc2ccc(Cl)cc2)N(C)C(=O)[C@H](Cc2cccc(C(=O)O)c2)NC(=O)[C@H](CCCNC(=N)N)NC(=O)[C@H](CCC(N)=O)NC(=O)[C@H]([C@@H](C)CC)NC1=O` [compound 92] ({CH2CO}-AV[NMePhe(3-Cl)]V[Trp(1-CH2COOH)]NYY(Carboxymethyl)[Nva(3-Et)]IQR[Phe(3-COOH)][NMePhe(4-Cl)]C[PEG4]-NH2; thioether N-15), the Kd in test [1] amounted to 44.1 nM; in test [3], 13.8 nM. In test [2], the “dependency koff pH6.0/7.4” value is reported as 5.47.
